Test results: patent US20250090441A1, “ANTI-CARIES PEPTIDES WITH ANTIMICROBIAL AND REMINERALIZING PROPERTIES AND METHODS THEREOF” (THE UNIVERSITY OF HONG KONG, priority 2023, published 2025)
Converted amounts (≈) assume the structure as drawn. Where a SMILES comes first, the peptide text is derived from it.

How the values were obtained:
[1] = Effect on hard tissue, biofilm remineralization cycling model (micro-CT, FTIR); conditions: carious dentine, 160 μM GAPI
Source text: Dentine slices, 2 mm thick, were cut from sound extracted third molars. Ultra-fine 4000-grit sandpaper was used to polish these slices. Slices with defects were eliminated based on a stereomicroscope observation. A total of forty dentine slices were selected. Each slice was separated into two blocks and assigned to two groups. Nail varnish was used to coat half of the blocks as an internal control. S. mutans American Type Culture Collection 35668 was utilized in the present study. All the dentine blocks were placed into S. mutans culture (10^8 cells/mL) in a brain-heart infusion (BHI) broth containing 5% glucose to generate artificial caries. After a 3-day anaerobic culture at 37° C., the depth of the caries lesion surface was around 96 μm, which was observed using micro-computed tomography (micro-CT).
Two blocks from the same slice were assigned to the GAPI group (160 μM GAPI) and control group (deionized water) separately. All the blocks underwent a biochemical model involving chemical remineralization and an S. mutans biofilm challenge for seven days. The remineralization solution (pH 7.0) consisted of 1.5 mm calcium chloride, 150 mm potassium chloride, 0.9 mm potassium dihydrogen phosphate, and 20 mm 4-(2-hydroxyethyl)-1-piperazineethanesulfonic acid. The cycling process included 8 h of immersion in the remineralization solution and 16 h of immersion in an S. mutans biofilm medium.
Micro-CT (SkyScan 1272, Antwerp, Belgium) was employed to evaluate the lesion depths and mineral losses (n=8 for each group). The X-ray source parameters were set at an 80 kV voltage and 100 μA current with an image pixel size of 10 μm. Moreover, two standard mineral cylindrical phantoms (Bruker, Kontich, Belgium) with mineral density values (MDVs, gHApcm^−3) of 0.25 gHApcm^−3 and 0.75 gHApcm^−3 were scanned to calibrate the blocks' greyscales. The NRecon reconstruction software (Version 1.7.4.6, SkyScan, Antwerp, Belgium) was utilized to reconstruct the scanning images. The CTAn data analysis software (CTAn version 1.20.3.0, Skyscan NV, Kontich, Belgium) was employed to analyze the cross-sectional images. The lesion depths were measured, and the images' greyscale values were calibrated. Subsequently, the demineralized and control areas were calculated into the MDV for each block. The mineral loss was determined as the difference between the MDV of the control and the MDV of the demineralized area (Niu et al., 2022).
FTIR (Spectrum Two, PerkinElmer, Waltham, MA, USA) was employed to examine the changes in the dentin's chemical structures (n=8 for each group). […] The ratio of the HPO4^2− to amide I absorbance area represented the degree of demineralization in the dentin.

[2] = Stability in human saliva (HPLC); assay type: in vitro ADME
Procedure: The stability of peptides in human saliva was investigated by testing the remaining peptide concentration via HPLC system (Waters Pacific Pte Ltd, Singapore). The saliva with peptides was mixed and incubated for 0, 15, 30, 45 and 60 min. The test was processed following a previous experimental protocol (Huang et al. 2016).

[3] = tested on: Lacticaseibacillus casei, ATCC 334; test: MIC and MBC/MFC test; assay type: cell-based
Procedure: (§1) The antimicrobial properties of synthesized peptides against bacteria and fungi were evaluated using minimum inhibitory concentration (MIC) and minimum bactericidal/fungicidal concentration (MBC/MFC) tests (Wiegand et al. 2008). The tested species include Streptococcus mutans, UA159; Lacticaseibacillus casei, American Type Culture Collection (ATCC) 334; and Candida albicans, ATCC 90028. A 10 μL aliquot of bacterial culture (10^6 CFU/mL) in brain heart infusion (BHI) broth was added to 100 μL serial two-fold dilutions of experimental solutions. The optical density values at 660 nm were measured after 18 h of incubation. To determine the MBC, 10 μL of bacterial culture was taken from the well of MIC, and wells before and after the well of MIC, and transferred to blood agar. The test protocol for fungi was similar: the culture medium was a Roswell Park Memorial Institute (RPMI) 1640 Medium, the absorbance was measured at 520 nm, and Sabouraud dextrose agar was used for the MFC test. Chlorhexidine and medium were used as the positive and negative controls.

[4] = tested on: Streptococcus mutans, UA159; test: MIC and MBC/MFC test; assay type: cell-based
Procedure: as §1

[5] = 7 days cycling, micro-CT, n = 8
[6] = Streptococcus mutans (UA159), μM

With `CC(C)[C@@H]1NC(=O)[C@H](CCCN=C(N)N)NC(=O)[C@H](Cc2ccccc2)NC(=O)[C@@H](NC(=O)[C@H](Cc2c[nH]c3ccccc23)NC(=O)[C@H](CCCN=C(N)N)NC(=O)[C@H](CCCN=C(N)N)NC(=O)c2cc(O)c(O)c(O)c2)CSSC[C@@H](C(=O)N[C@@H](CCCN=C(N)N)C(=O)O)NC(=O)[C@H](CCCCN)NC(=O)[C@H](CCCN=C(N)N)NC(=O)[C@H](Cc2ccc(O)cc2)NC(=O)[C@@H]2CSSC[C@H](NC1=O)C(=O)N[C@@H](Cc1ccc(O)cc1)C(=O)N[C@@H](CCCN=C(N)N)C(=O)NCC(=O)N[C@@H](Cc1ccccc1)C(=O)N2` [GAPI, Gallic-Acid-Polyphemusin-I] (HELM PEPTIDE1{[O=C(c1cc(O)c(O)c(O)c1)[*:2]].R.R.W.C.F.R.V.C.Y.R.G.F.C.Y.R.K.C.R}$PEPTIDE1,PEPTIDE1,5:R3-18:R3|PEPTIDE1,PEPTIDE1,9:R3-14:R3$$$V2.0) as the compound, how does the lesion depths [1] read?
Its lesion depths is 151±18 μm.

What about the “Hydrogen phosphate-to-amide I ratio” value ([1]; 7 days cycling, FTIR, n = 8) of the same compound?
The value was 2.92±0.82.

What about the Lesion depth [1, 5] of the same compound?
Its Lesion depth is 151 ± 18 μm.

What about the Mineral loss [1, 5] of the same compound?
Its Mineral loss is 0.91±0.07 gHAcm^−3.

What about the “stable in saliva (time)” value [2] of the same compound?
Its value is “at least 60 min”.

And the remaining at 0.25 h ([2]; human, 15 min, read-out: remaining percentage after incubation in human saliva)?
Its remaining at 0.25 h is 98.9%.

And the remaining at 0.5 h ([2]; human, 30 min, read-out: remaining percentage after incubation in human saliva)?
The remaining at 0.5 h was 98.6%.

And the remaining at 0.75 h ([2]; human, 45 min, read-out: remaining percentage after incubation in human saliva)?
Its remaining at 0.75 h is 96.8%.

What about the remaining at 1 h ([2]; human, 60 min, read-out: remaining percentage after incubation in human saliva) of the same compound?
The remaining at 1 h was 94.4%.

And the minimum inhibitory concentration [3]?
Its minimum inhibitory concentration is 40 µM (≈ 104 µg/mL).

What about the MBC/MFC ([3]; μM) of the same compound?
The MBC/MFC was 160.

And the MIC ([3]; μM)?
Its MIC is 40.

What about the minimum inhibitory concentration ([4]; Streptococcus mutans) of the same compound?
Its minimum inhibitory concentration is 40 µM (≈ 104 µg/mL).

What about the MBC/MFC [4, 6] of the same compound?
Its MBC/MFC is 80.

What about the MIC [4, 6] of the same compound?
The MIC was 40.
